Our source for the IC50 and EC50 values is patent US9365541B2, “Compounds for use in the treatment of parasitic diseases” (IRBM—SCIENCE PARK S.P.A., priority 2012, dated 2016).

In one assay the target is T1, human HDAC1 (Homo sapiens, UniProt Q13547).
T1 construct: made in house; host or cells: HeLa (ATCC CCL-2), mammalian cells
Description: Homo sapiens HDAC1 inhibition assay (Fluor-de-Lys, enzymatic). The assay is classed as biochemical. The following applies: human HDAC enzymatic assay; read-out: hHDAC IC50. How it is done:
Biology Homo sapiens HDAC1 Inhibition Assay Overview:
The aim of the assay is to evaluate the inhibition of the deacetylase activity of human HDAC1. To such goal an acetylated substrate is added to the enzyme mix; the resulting enzymatic product is converted to a fluorescent molecule by the addition the enzyme trypsine (developer solution). Fluorescence intensity is inversely proportional to the rate of inhibition of the enzyme (as indicated in the material section below).
Reagents of the HDAC Fluorescent Activity Assay are purchased from Enzo Life Sciences (http://www.enzolifesciences.com/BML-AK500/fluor-de-lys-hdac-fluorometric-activity-assay-kit/) and feature the Fluor-de-Lys™ Substrate/Developer System.
c) Trichostatin A (TSA) Stock
TSA (Sigma-Aldrich, T8552) is provided as a 10 mM stock solution in 100% dimethylsulfoxide (DMSO).
Diluted Substrate Solution
The final concentration in the assay is 20 μM.
Diluted Developer Solution
2 μM [final] TSA to this solution increases its ability to stop the reaction.
The HDAC1 enzyme is diluted in assay buffer prior to each use from a fresh aliquot of enzyme.
The final concentration in the assay is 1-2 nM.
Test compounds should be prepared in 100% DMSO and transferred to the assay by a nano volume dispenser to reach the appropriate concentration and the appropriate DMSO concentration (0.25%) in the reaction.

The test system of assay [1] is Plasmodium falciparum 3D7. Description: P. falciparum growth inhibition assay (Pf-LDH). The assay is classed as cell-based. To be noted: Plasmodium falciparum, Erythrocyte; P. falciparum 3D7 infected erythrocytes, 72 h incubation, PfLDH readout. The method, then: Basic culture of Plasmodium falciparum 3D7 parasites (Malaria Research and Reference Reagent Resource Center (MR4), MR4 Number: MRA-102).
Starting with a culture with a parasitemia of about 10% (and 5% hematocrit), 0.5 ml of the culture is placed in a fresh 100 mm petri dish with 0.95 ml of fresh erythrocytes (50% hematocrit) and 8.55 ml of culture medium, giving a new starting parasitemia of 0.5%. The petri dish is then incubated at 37° C. in a humidified gas-tight plastic box flushed with a gas mixture consisting of 93% N2, 4% CO2, and 3% O2. The culture medium is changed daily. The supernatant is removed by gently tipping the dish without disturbing the settled cells and aspirating the medium with a Pasteur pipette connected to a vacuum pump. A small amount of the concentrated cells is taken to prepare a blood smear for determination of the parasitemia. Normally, the cultures are split twice a week. If the parasites are growing very slowly then fresh erythrocytes are added to the culture no later than after 7 days. The cultures are then split 1:2 if the parasitemia is lower than 0.5%. To avoid the necessity of daily medium change on weekends, a culture with a 2.5% hematocrit and 0.1-0.2% parasitemia is set up and can be left for 3 days without medium change.
Standard medium consists of RPMI 1640, supplemented with 25 mM HEPES, 24 mM NaHCO3, 0.36 mM hypoxanthine, 100 μg/ml Neomycin, 5 g/1 Albumax® II, and washed human red blood cells (rbcs) A+.
P. falciparum Growth Inhibition Assay (Pf-LDH)
Compounds of the invention were assessed for in vitro antimalarial activity against a cloroquine sensitive (3D7) strain of the malaria parasite Plasmodium falciparum, using a lactate dehydrogenase (PfLDH) assay.
EC50 Determination by Pf-LDH Assay
384 plates (where compounds to be tested are dispensed) with 25 μl of parasite inoculum (parasitemia: 0.25%, hematocrit: 2%) are incubated at 37° C. in an atmosphere of 4% CO2, 3% O2, 93% N2. After 72 h of incubation, plates are frozen at −70° C. overnight and thawed at room temperature for at least 4 h. To evaluate PfLDH activity, 70 μl of freshly made reaction mix (143 mM sodium L-lactate, 143 μM 3-acetyl pyridine adenine dinucleotide (APAD), 178.75 μM Nitro Blue tetrazolium chloride (NBT), 286 μg/ml diaphorase (2.83 U/ml), 0.7% Tween 20, 100 mM Tris-HCl pH 8.0) is dispensed using a Multidrop Combi dispenser. Plates are shaken to ensure mixing and absorbance at 650 nm is monitored in a plate reader after 10 min of incubation at room temperature.
Negative controls (0% Effect) are produced by addition of DMSO to the proper wells.
Positive controls (100% Effect) are produced by addition of 150 nM Artemisinin (Sigma-Aldrich, 361593)
After result normalization using positive and negative controls, compound potency is determined by fitting the following equation: % inh=Ymin+(Ymax−Ymin)/(1+(X/EC50)^slope)) Where: • Ymin=minimum percentage effect • Ymax=maximum percentage effect • EC50=the concentration of the compound at which 50% effect is reached • Slope=the slope of the curve calculated at the EC50 Histone Hyperacetylation and Immunodetection of Altered Histone Modifications Assay

T1 sequence (Q13547 whole entry): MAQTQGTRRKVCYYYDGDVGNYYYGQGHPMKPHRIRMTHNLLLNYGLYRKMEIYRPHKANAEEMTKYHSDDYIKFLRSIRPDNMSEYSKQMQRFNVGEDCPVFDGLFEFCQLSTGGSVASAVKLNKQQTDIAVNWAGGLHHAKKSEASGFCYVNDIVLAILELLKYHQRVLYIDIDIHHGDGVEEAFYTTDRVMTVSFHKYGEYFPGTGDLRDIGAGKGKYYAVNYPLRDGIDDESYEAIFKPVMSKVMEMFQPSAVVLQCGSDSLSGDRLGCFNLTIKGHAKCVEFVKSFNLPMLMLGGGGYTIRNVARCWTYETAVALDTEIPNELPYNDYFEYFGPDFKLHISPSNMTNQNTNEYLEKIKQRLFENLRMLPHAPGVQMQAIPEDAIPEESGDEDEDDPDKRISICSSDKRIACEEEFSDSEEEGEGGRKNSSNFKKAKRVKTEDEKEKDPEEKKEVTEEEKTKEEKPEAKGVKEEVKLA

For the compound `CNC(=O)CCCCC[C@H](NC(=O)CN1CCCCC1)c1ncc(-c2ccc3ccccc3c2)[nH]1` [Entry 1], the IC50 at human HDAC1 lay in the range of 1000 to 5000 nM. In assay [1], this compound gave an EC50 of 1000 to 5000 nM. For the compound `CNC(=O)CCCCC[C@H](NC(=O)c1ccnc2c1CCCN2)c1ncc(-c2ccc3ccccc3c2)[nH]1` [Entry 2, (S)-N-(7-(methylamino)-1-(5-(naphthalen-2-yl)-1H-imidazol-2-yl)-7-oxoheptyl)-5,6,7,8-tetrahydro-1,8-naphthyridine-4-carboxamide], the IC50 at human HDAC1 fell in the range of 1000 to 5000 nM. Besides, in assay [1], the EC50 fell in the range of 1000 to 5000 nM. Regarding `CNC(=O)CCCCC[C@H](NS(=O)(=O)c1cccc([N+](=O)[O-])c1)c1ncc(-c2ccc3ccccc3c2)[nH]1` [Entry 3], the IC50 on human HDAC1 was under 1000 nM. This compound also showed an EC50 in assay [1] of under 1000 nM. Turning to `CNC(=O)CCCCC[C@H](NC(=O)[C@H]1CCN(C)C1)c1ncc(-c2ccc3ccccc3c2)[nH]1` [Entry 4, (S)-1-methyl-N-((S)-7-(methylamino)-1-(5-(naphthalen-2-yl)-1H-imidazol-2-yl)-7-oxo-heptyl)pyrrolidine-3-carboxamide], the concentration for half-maximal inhibition (IC50) at human HDAC1 is under 1000 nM. In assay [1], the EC50 lay within 1000 to 5000 nM. Regarding `CNC(=O)CCCCC[C@H](NC(=O)C1CCN(C)CC1)c1ncc(-c2ccc3ccccc3c2)[nH]1` [Entry 5, (S)-1-methyl-N-(7-(methylamino)-1-(5-(naphthalen-2-yl)-1H-imidazol-2-yl)-7-oxo-heptyl)piperidine-4-carboxamide], the IC50 on human HDAC1 is under 1000 nM. In assay [1], this compound registered an EC50 of 1000 to 5000 nM.

As for `CNC(=O)CCCCC[C@H](NC(=O)Cn1ccnn1)c1ncc(-c2cc3ccccc3nc2OC)[nH]1` [Entry 6, (S)-7-(2-(1H-1,2,3-triazol-1-yl)acetamido)-7-(5-(2-methoxyquinolin-3-yl)-1H-imidazol-2-yl)-N-methylheptanamide], the IC50 at human HDAC1 was 1000 to 5000 nM. Further, the EC50 in assay [1] was in the range of 1000 to 5000 nM.

As to `CNC(=O)CCCCC[C@H](NC(=O)Cn1nnc2ccccc21)c1ncc(-c2cc3ccccc3nc2OC)[nH]1` [Entry 7], the IC50 on human HDAC1 is under 1000 nM. In assay [1], this compound returned an EC50 of 1000 to 5000 nM. The like results for `CCc1nc2ccccc2n1CCC(=O)N[C@@H](CCCCCC(=O)NC)c1ncc(-c2cc3ccccc3nc2OC)[nH]1` [Entry 8, (S)-7-(3-(2-ethyl-1H-benzo[d]imidazol-1-yl)propanamido)-7-(5-(2-methoxyquinolin-3-yl)-1H-imidazol-2-yl)-N-methylheptanamide] were, in that order, under 1000 nM and 1000 to 5000 nM. For `CNC(=O)CCCCC[C@H](NC(=O)c1cc(C)nn1C)c1ncc(-c2cc3ccccc3nc2OC)[nH]1` [Entry 9, (S)-N-(1-(5-(2-methoxyquinolin-3-yl)-1H-imidazol-2-yl)-7-(methylamino)-7-oxoheptyl)-1,3-dimethyl-1H-pyrazole-5-carboxamide], on human HDAC1, the IC50 was under 1000 nM. This compound yielded an EC50 in assay [1] of 1000 to 5000 nM. Regarding `CNC(=O)CCCCC[C@H](NC(=O)c1cncs1)c1ncc(-c2ccc3cccnc3c2)[nH]1` [Entry 10], the IC50 on human HDAC1 was over 5000 nM. This compound also displayed an EC50 in assay [1] of 1000 to 5000 nM. The like results for `CNC(=O)CCCCC[C@H](NC(=O)Cn1cncn1)c1ncc(-c2ccc(-n3cccn3)cc2)[nH]1` [Entry 11, (S)-7-(2-(1H-1,2,4-triazol-1-yl)acetamido)-7-(5-(4-(1H-pyrazol-1-yl)phenyl)-1H-imidazol-2-yl)-N-methylheptanamide] were, in that order, over 5000 nM and over 5000 nM. As to `CNC(=O)CCCCC[C@H](NC(=O)c1cnsc1)c1ncc(-c2ccc(-n3cccn3)cc2)[nH]1` [Entry 12, (S)-N-(1-(5-(4-(1H-pyrazol-1-yl)phenyl)-1H-imidazol-2-yl)-7-(methylamino)-7-oxoheptyl)isothiazole-4-carboxamide], at human HDAC1, the IC50 fell in the range of 1000 to 5000 nM. Moreover, in assay [1], the EC50 lay in the range of 1000 to 5000 nM. As to `CNC(=O)CCCCC[C@H](NC(=O)c1cccc2nc(C)c(C)nc12)c1ncc(-c2ccc3ccccc3c2)[nH]1` [Entry 13, (S)-2,3-dimethyl-N-(7-(methylamino)-1-(5-(naphthalen-2-yl)-1H-imidazol-2-yl)-7-oxo-heptyl)quinoxaline-5-carboxamide], the IC50 at human HDAC1 was 1000 to 5000 nM. Besides, in assay [1], the EC50 was 1000 to 5000 nM.

On to `CNC(=O)CCCCC[C@H](NC(=O)c1cncs1)c1ncc(-c2ccc3cc(OC)cnc3c2)[nH]1` [Entry 14], for which the IC50 on human HDAC1 was in the range of 1000 to 5000 nM. In assay [1], this compound returned an EC50 of 1000 to 5000 nM.

As for `CNC(=O)CCCCC[C@H](NC(=O)Cc1cnc2ccccn12)c1ncc(-c2ccc3ccncc3c2)[nH]1` [Entry 15, (S)-7-(2-(imidazo[1,2-a]pyridin-3-yl)acetamido)-7-(5-(isoquinolin-7-yl)-1H-imidazol-2-yl)-N-methylheptanamide], the IC50 at human HDAC1 was under 1000 nM. For the same compound, the EC50 in assay [1] was 1000 to 5000 nM. On the same counts, the results for `CNC(=O)CCCCC[C@H](NC(=O)c1ccns1)c1ncc(-c2ccc(-c3ccn(C)n3)cc2)[nH]1` [Entry 16, (S)-N-(1-(5-(4-(1-methyl-1H-pyrazol-3-yl)phenyl)-1H-imidazol-2-yl)-7-(methylamino)-7-oxoheptyl)isothiazole-5-carboxamide] are 1000 to 5000 nM and under 1000 nM. For the compound `CNC(=O)CCCCC[C@H](NC(=O)c1cnc(C)s1)c1ncc(-c2ccc(-c3ccn(C)n3)cc2)[nH]1` [Entry 17, (S)-2-methyl-N-(1-(5-(4-(1-methyl-1H-pyrazol-3-yl)phenyl)-1H-imidazol-2-yl)-7-(methylamino)-7-oxoheptyl)thiazole-5-carboxamide], on human HDAC1, the IC50 fell in the range of 1000 to 5000 nM. For the same compound, the EC50 in assay [1] was under 1000 nM. On the same counts, the results for `CNC(=O)CCCCC[C@H](NC(=O)C1CN(C)C1)c1ncc(-c2cc3ccccc3[nH]c2=O)[nH]1` [Entry 18, (S)-1-methyl-N-(7-(methylamino)-7-oxo-1-(5-(2-oxo-1,2-dihydroquinolin-3-yl)-1H-imidazol-2-yl)heptyl)azetidine-3-carboxamide] are 1000 to 5000 nM and over 5000 nM. `COc1ccc2[nH]c(C)c(CC(=O)N[C@@H](CCCCCC(N)=O)c3ncc(-c4ccc5ccccc5c4)[nH]3)c2c1` [Entry 96, (S)-7-(2-(5-methoxy-2-methyl-1H-indol-3-yl)acetamido)-7-(5-(naphthalen-2-yl)-1H-imidazol-2-yl)heptanamide] came in with a concentration for a half-maximal effect (EC50) in assay [1] of under 1000 nM. Regarding `CNC(=O)CCCCC[C@H](NC(=O)[C@H]1CCN(C)C1)c1ncc(-c2ccc3ccccc3c2)[nH]1` [Entry 149, (S)-1-methyl-N-((S)-7-(methylamino)-1-(5-(naphthalen-2-yl)-1H-imidazol-2-yl)-7-oxo-heptyl)pyrrolidine-3-carboxamide], the IC50 at human HDAC1 lay within 1000 to 5000 nM. Consider `CNC(=O)CCCCC[C@H](NC(=O)c1cncs1)c1ncc(-c2cc3ccccc3nc2OC)[nH]1` [Entry 178, (S)-N-(1-(5-(2-methoxyquinolin-3-yl)-1H-imidazol-2-yl)-7-(methylamino)-7-oxoheptyl)thiazole-5-carboxamide], for which, in assay [1], the EC50 was under 1000 nM.
